# Laboratory results from PubChem BioAssay AID1963843 (Molecular Pharmacology Branch, DTP, NCI, 2024).
# System: 616215-338-R-J1-PDC complex spheroid viability
# Assay: Anticancer human tumor 616215-338-R-J1-PDC patient-derived colon adenocarcinoma cell line growth inhibition [POLQ]
# Details: for IC50: curve of first compound; for viability, T/C: stronger effect = lower value
# Procedure, shortened: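 Complex spheroid viability model combining PDC tumour cells with endothelial (HUVEC) and MSC stromal cells. Novobiocin, ART-558 or RP6685 were tested singly and in combination with standard and investigational anticancer drugs. Each was titrated in half-log steps from near clinical Cmax, or from 10 microM where Cmax was unknown.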
# [1] = second compound 0.0316 µM, first compound 0.0316 µM
# [2] = second compound 0.0316 µM, first compound 0.1 µM
# [3] = second compound 0.0316 µM, first compound 0.316 µM
# [4] = second compound 0.0316 µM, first compound 1 µM
# [5] = second compound 0.0316 µM, first compound 3.16 µM
# [6] = second compound 0.0316 µM, first compound 10 µM
# [7] = second compound 0.1 µM, first compound 0.0316 µM
# [8] = second compound 0.1 µM, first compound 0.1 µM
# [9] = second compound 0.1 µM, first compound 0.316 µM
# [10] = second compound 0.1 µM, first compound 1 µM
# [11] = second compound 0.1 µM, first compound 3.16 µM
# [12] = second compound 0.1 µM, first compound 10 µM
# [13] = second compound 0.316 µM, first compound 0.0316 µM
# [14] = second compound 0.316 µM, first compound 0.1 µM
# [15] = second compound 0.316 µM, first compound 0.316 µM
# [16] = second compound 0.316 µM, first compound 1 µM
# [17] = second compound 0.316 µM, first compound 3.16 µM
# [18] = second compound 0.316 µM, first compound 10 µM
# [19] = second compound 1 µM, first compound 0.0316 µM
# [20] = second compound 1 µM, first compound 0.1 µM
# [21] = second compound 1 µM, first compound 0.316 µM
# [22] = second compound 1 µM, first compound 1 µM
# [23] = second compound 1 µM, first compound 3.16 µM
# [24] = second compound 1 µM, first compound 10 µM
# [25] = second compound 3.16 µM, first compound 0.0316 µM
# [26] = second compound 3.16 µM, first compound 0.1 µM
# [27] = second compound 3.16 µM, first compound 0.316 µM
# [28] = second compound 3.16 µM, first compound 1 µM
# [29] = second compound 3.16 µM, first compound 3.16 µM
# [30] = second compound 3.16 µM, first compound 10 µM
# [31] = second compound 10 µM, first compound 0.0316 µM
# [32] = second compound 10 µM, first compound 0.1 µM
# [33] = second compound 10 µM, first compound 0.316 µM
# [34] = second compound 10 µM, first compound 1 µM
# [35] = second compound 10 µM, first compound 3.16 µM
# [36] = second compound 10 µM, first compound 10 µM
# 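Further: spheroids exposed to compounds for one week before readout.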
# 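Wherever viability, T/C is given: percent viability relative to DMSO vehicle wells taken as 100%.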
smiles,measurement,setting,value
CC1COCCN1c1cc(-c2ccnn2C)c2ccnc(-c3ccn[nH]3)c2n1 (stereo not drawn) + COC1C(OC(N)=O)C(O)C(Oc2ccc3c(O)c(NC(=O)c4ccc(O)c(CC=C(C)C)c4)c(=O)oc3c2C)OC1(C)C,IC50,second compound 0.0316 µM,862 nM
same,IC50,second compound 0.1 µM,608 nM
same,IC50,second compound 0.316 µM,619 nM
same,IC50,second compound 1 µM,610 nM
same,IC50,second compound 3.16 µM,804 nM
same,IC50,second compound 10 µM,635 nM
same,"viability, T/C",[1],102%
same,"viability, T/C",[2],90.4%
same,"viability, T/C",[3],70.4%
same,"viability, T/C",[4],48.4%
same,"viability, T/C",[5],31.5%
same,"viability, T/C",[6],33%
same,"viability, T/C",[7],96.4%
same,"viability, T/C",[8],91.1%
same,"viability, T/C",[9],60.8%
same,"viability, T/C",[10],44%
same,"viability, T/C",[11],30.5%
same,"viability, T/C",[12],38.7%
same,"viability, T/C",[13],99.6%
same,"viability, T/C",[14],86.1%
same,"viability, T/C",[15],59.3%
same,"viability, T/C",[16],46.1%
same,"viability, T/C",[17],29.7%
same,"viability, T/C",[18],40.2%
same,"viability, T/C",[19],103%
same,"viability, T/C",[20],84.8%
same,"viability, T/C",[21],58.9%
same,"viability, T/C",[22],46.1%
same,"viability, T/C",[23],29%
same,"viability, T/C",[24],36.1%
same,"viability, T/C",[25],96.1%
same,"viability, T/C",[26],86.4%
same,"viability, T/C",[27],68.6%
same,"viability, T/C",[28],47.6%
same,"viability, T/C",[29],28.7%
same,"viability, T/C",[30],30.9%
same,"viability, T/C",[31],96.8%
same,"viability, T/C",[32],86.9%
same,"viability, T/C",[33],57.3%
same,"viability, T/C",[34],47.7%
same,"viability, T/C",[35],29.1%
same,"viability, T/C",[36],31%
CNCc1ccc(-c2[nH]c3cc(F)cc4c3c2CCNC4=O)cc1 + Nc1ccc(C#CCN(C(=O)Cc2ncc(C(F)(F)F)cc2C(F)(F)F)c2ccc(F)cc2)nn1,IC50,second compound 0.0316 µM,7900 nM
same,IC50,second compound 0.1 µM,7180 nM
same,IC50,second compound 0.316 µM,7710 nM
same,IC50,second compound 1 µM,7520 nM
same,IC50,second compound 3.16 µM,7030 nM
same,IC50,second compound 10 µM,6230 nM
same,"viability, T/C",[1],101%
same,"viability, T/C",[2],107%
same,"viability, T/C",[3],97%
same,"viability, T/C",[4],104%
same,"viability, T/C",[5],104%
same,"viability, T/C",[6],36.2%
same,"viability, T/C",[7],104%
same,"viability, T/C",[8],111%
same,"viability, T/C",[9],90.3%
same,"viability, T/C",[10],119%
same,"viability, T/C",[11],122%
same,"viability, T/C",[12],25.8%
same,"viability, T/C",[13],102%
same,"viability, T/C",[14],112%
same,"viability, T/C",[15],104%
same,"viability, T/C",[16],95.7%
same,"viability, T/C",[17],119%
same,"viability, T/C",[18],33.4%
same,"viability, T/C",[19],107%
same,"viability, T/C",[20],94.8%
same,"viability, T/C",[21],95.8%
same,"viability, T/C",[22],105%
same,"viability, T/C",[23],106%
same,"viability, T/C",[24],33%
same,"viability, T/C",[25],96.8%
same,"viability, T/C",[26],93.3%
same,"viability, T/C",[27],93.8%
same,"viability, T/C",[28],102%
same,"viability, T/C",[29],105%
same,"viability, T/C",[30],28.6%
same,"viability, T/C",[31],93%
same,"viability, T/C",[32],78.5%
same,"viability, T/C",[33],102%
same,"viability, T/C",[34],103%
same,"viability, T/C",[35],103%
same,"viability, T/C",[36],17.9%
COc1ccc([C@@H](O)c2cc(-c3ncnc4cc(N5CCOCC5)ccc34)c(F)cc2Cl)nn1 + Cc1cccc(N(C)C(=O)C2C(O)CCN2c2nc(C)cc(C(F)(F)F)c2C#N)c1,IC50,second compound 0.0316 µM,> 10000 nM
same,IC50,second compound 0.1 µM,> 10000 nM
same,IC50,second compound 0.316 µM,> 10000 nM
same,IC50,second compound 1 µM,> 10000 nM
same,IC50,second compound 3.16 µM,> 10000 nM
same,IC50,second compound 10 µM,> 10000 nM
same,"viability, T/C",[1],97.8%
same,"viability, T/C",[2],108%
same,"viability, T/C",[3],94.8%
same,"viability, T/C",[4],113%
same,"viability, T/C",[5],101%
same,"viability, T/C",[6],78.7%
same,"viability, T/C",[7],92.6%
same,"viability, T/C",[8],108%
same,"viability, T/C",[9],108%
same,"viability, T/C",[10],109%
same,"viability, T/C",[11],100%
same,"viability, T/C",[12],72.2%
same,"viability, T/C",[13],108%
same,"viability, T/C",[14],108%
same,"viability, T/C",[15],100%
same,"viability, T/C",[16],111%
same,"viability, T/C",[17],109%
same,"viability, T/C",[18],73.5%
same,"viability, T/C",[19],114%
same,"viability, T/C",[20],111%
same,"viability, T/C",[21],109%
same,"viability, T/C",[22],122%
same,"viability, T/C",[23],103%
same,"viability, T/C",[24],70.5%
same,"viability, T/C",[25],97.5%
same,"viability, T/C",[26],104%
same,"viability, T/C",[27],102%
same,"viability, T/C",[28],102%
same,"viability, T/C",[29],105%
same,"viability, T/C",[30],80.3%
same,"viability, T/C",[31],112%
same,"viability, T/C",[32],100%
same,"viability, T/C",[33],99.8%
same,"viability, T/C",[34],111%
same,"viability, T/C",[35],99.8%
same,"viability, T/C",[36],55.6%
CC1COCCN1c1cc(C2(O)CC3CCC(C2)O3)c2cnn(-c3ccn[nH]3)c2n1 (stereo not drawn) + Nc1ccc(C#CCN(C(=O)Cc2ncc(C(F)(F)F)cc2C(F)(F)F)c2ccc(F)cc2)nn1,IC50,second compound 0.0316 µM,337 nM
same,IC50,second compound 0.1 µM,276 nM
same,IC50,second compound 0.316 µM,271 nM
same,IC50,second compound 1 µM,250 nM
same,IC50,second compound 3.16 µM,143 nM
same,IC50,second compound 10 µM,160 nM
same,"viability, T/C",[1],94.8%
same,"viability, T/C",[2],67.6%
same,"viability, T/C",[3],52.2%
same,"viability, T/C",[4],37.1%
same,"viability, T/C",[5],24.3%
same,"viability, T/C",[6],17.9%
same,"viability, T/C",[7],98.6%
same,"viability, T/C",[8],76.6%
same,"viability, T/C",[9],37.8%
same,"viability, T/C",[10],38.1%
same,"viability, T/C",[11],24.3%
same,"viability, T/C",[12],15.3%
same,"viability, T/C",[13],93.8%
same,"viability, T/C",[14],76.3%
same,"viability, T/C",[15],42%
same,"viability, T/C",[16],35.2%
same,"viability, T/C",[17],27.6%
same,"viability, T/C",[18],19.9%
same,"viability, T/C",[19],94.1%
same,"viability, T/C",[20],69.1%
same,"viability, T/C",[21],39.5%
same,"viability, T/C",[22],36.8%
same,"viability, T/C",[23],28.6%
same,"viability, T/C",[24],18.5%
same,"viability, T/C",[25],92.8%
same,"viability, T/C",[26],54.9%
same,"viability, T/C",[27],36.3%
same,"viability, T/C",[28],26.7%
same,"viability, T/C",[29],27.3%
same,"viability, T/C",[30],14.6%
same,"viability, T/C",[31],101%
same,"viability, T/C",[32],56.2%
same,"viability, T/C",[33],36.6%
same,"viability, T/C",[34],26.9%
same,"viability, T/C",[35],24.2%
same,"viability, T/C",[36],9.04%
